“And” between values parts separate entries of the source, which are not always exact repeats. Identical values can stand only once. Like-named read-outs stand apart in the source and are kept apart here.
Assays:
KB cells = test: Growth inhibition of parental oral epidermoid carcinoma cells; format: cell-based; details: Homo sapiens
Protocol: (§1) The growth inhibition rate GI50 was calculated by GraphPadPrism5.

HL-60 = test: Cell growth inhibition assay, suspension cells, Trypan Blue counting, 72 h; format: cell-based; details: Homo sapiens, HL-60, leukemia
Description: (§2) Human acute myeloid leukemia cells HL-60, human chronic myeloid leukemia cells K562, human prostate cancer cell line PC-3, human hepatoma cells HepG-2, human colon cancer cells HC-T116, and human cervical cancer cell line Hela were purchased from American Type Culture Collection (ATCC). Human acute myeloid leukemia cells MOLM-13 were purchased from DSMZ-Deutsche Sammlung von Mikroorganismen und Zellkulturen GmbH (Braunschweig Germany).
(§3) Suspension cells: Leukemia cells HL-60, MOLM-13, and K562 were inoculated into a 24-well plate at a density of 0.5-1×10^5 cells/mL. Subsequently, the cells were incubated with different concentrations of compounds in an incubator for 72 h. Then, the culture plate was removed from the incubator. In each well, the cells and the compounds were mixed well; 50 μL of cell suspension was transferred and mixed well with 50 μL of Trypan Blue (0.4%), followed by counting microscopically.
(§4) Cell growth inhibition rate was calculated according to the following formula. The growth inhibition rate GI50 (the concentration that results in inhibiting cell growth by 50%) was calculated by GraphPadPrism5.
(§5) Growth inhibition rate=(1−Cell count of the drug group/Cell count of the control group)×100%.

MOLM-13 = test: as above; format: cell-based; details: Homo sapiens, MOLM-13, leukemia
Description: as §2, §3, §4, §5

K562 = test: as above; format: cell-based; details: Homo sapiens, K562, leukemia
Description: as §2, §3, §4, §5

MX-1 cells = test: Growth inhibition of parental breast cancer cells; format: cell-based; details: Homo sapiens, MX1; MX-1 parental cells
Protocol: as §1

MCF-7 cells = test: Growth inhibition of parental breast cancer cells; format: cell-based; details: Homo sapiens, MCF7; MCF-7 parental cells
Protocol: as §1

[1] = system: paclitaxel-resistant A549/T cells; test: cells; details: Homo sapiens, A549, 96 h; for inhibition at 5 µM / inhibition at 10 µM / inhibition at 20 µM: read-out: Growth inhibition rate
Protocol: (§6) After incubation overnight, 100 μL of culture medium supplemented with various concentrations of compounds was added to each well. After incubation for 96 h, 50 μL of methyl thiazolyl tetrazolium (MTT) solution (2 mg/mL) was added to each well and incubated at 37° C. for 4 h. The culture medium was suctioned, and the cells were dissolved in 200 μL of DMSO. The absorbance at 570 nm was measured by using a microplate reader. The growth inhibition rate GI50 was calculated by GraphPadPrism5.

[2] = system: vincristine-resistant KB/V cells; test: Growth inhibition of vincristine-resistant oral epidermoid carcinoma cells; details: for GI50: Homo sapiens, KBV, read-out: GI50 ± SD; for RI: resistance index: ratio of GI50 KB/V to KB
Protocol: (§7) Adherent cells: PC-3, HepG-2, HCT-116, and Hela cells were inoculated into a 96-well plate at a density of 1,000-3,500 cells/mL. After incubation overnight, 100 μL of culture medium supplemented with various concentrations of compounds was added to each well. After incubation for 96 h, 50 μL of methyl thiazolyl tetrazolium (MTT) solution (2 mg/mL) was added to each well and incubated at 37° C. for 4 h. The culture medium was suctioned, and the cells were dissolved in 200 μL of DMSO. The absorbance at 570 nm was measured by using a microplate reader. The growth inhibition rate GI50 was calculated by GraphPadPrism5.
(§8) The cells used in the assay included human NSCLC A549 cells and paclitaxel-resistant A549/T cells, human breast cancer MCF-7 cells and paclitaxel-resistant MCF-7/T cells, human breast cancer MX-1 cells and paclitaxel-resistant MX-1/T cells, and human oral epidermoid carcinoma KB cells and vincristine-resistant KB/V cells.
(§9) A549 and A549/T cells were cultured in 1640 Medium, while MX-1, MX-1/T, MCF-7, MCF-7/T, KB, and KB/V cells were cultured in DMEM supplemented with 10% inactivated FBS, 10 mmol/L L-glutamine, 100 U/mL penicillin, and 100 μg/mL streptomycin in a 37° C., 5% CO2 and saturated humidity incubator.

[3] = system: paclitaxel-resistant A549/T cells; details: 96 h
Protocol: as §6

[4] = system: paclitaxel-resistant A549/T cells; test: cells; details: Homo sapiens, A549, read-out: GI50 ± SD
Protocol: as §7, §8, §9
(§10) Cell lines used in the assay included human NSCLC A549 cells and paclitaxel-resistant A549/T cells.

A549 cells = test: Growth inhibition of parental NSCLC cells; format: cell-based, human
Protocol: as §1

[5] = system: paclitaxel-resistant MCF-7/T cells; test: Growth inhibition of paclitaxel-resistant breast cancer cells; format: cell-based, human; details: for GI50: Homo sapiens, MCF7, MCF-7/T paclitaxel-resistant cells; for RI: resistance index: ratio of GI50 MCF-7/T to MCF-7
Protocol: as §1

HepG-2 = test: Cell growth inhibition assay, adherent cells, MTT, 96 h; format: cell-based; details: Homo sapiens, HepG2; HepG-2, liver cancer, 96 h MTT
Protocol: as §2, §1

PC-3 = test: as above; format: cell-based; details: Homo sapiens; PC-3, prostatic cancer, 96 h MTT
Protocol: as §2, §1

Hela = test: as above; format: cell-based; details: Homo sapiens, cervical carcinoma, 96 h MTT
Protocol: as §2, §1

HCT-116 = test: as above; format: cell-based; details: Homo sapiens; HCT-116, colorectal cancer, 96 h MTT
Protocol: as §2, §1

[6] = system: paclitaxel-resistant MX-1/T cells; test: Growth inhibition of paclitaxel-resistant breast cancer cells; details: for GI50: Homo sapiens, read-out: GI50 ± SD; for RI: resistance index: ratio of GI50 MX-1/T to MX-1
Protocol: as §7, §8, §9

[7] = system: paclitaxel-resistant A549/T cells; details: for GI50: A549/T cells, salts (Table 3)
Protocol: as §7, §8, §9, §10

A549/T xenograft = A549/T xenograft model in BALB/c-nu mice; format: in vivo; details: i.p. every other day, 10 times, colchicine 0.5 mg/kg, paclitaxel 10 mg/kg, methylaminocolchicine 0.25 and 0.5 mg/kg
Protocol: Male BALB/c-nu mice (aged 6-8 weeks and weighing 18-20 g) were purchased from Beijing HFK Bioscience Co., Ltd. A549/T cells in logarithmic growth phase were mixed with Matrigel, and inoculated subcutaneously in the right armpit of a BALB/c-nu mouse at a density of 5×10^6 cells/mouse.
The mental state of the mice was monitored every day. The mouse weight was measured and recorded, and mouse weight change curves were plotted based on the average body weight of each group. The long and short diameters of tumors were measured every two days, and the tumor volume was calculated according to the tumor volume calculation formula: tumor volume=(long diameter×short diameter^2)/2. Tumor growth curves were plotted (FIG. 1A).

Porcine brain tubulin [8] = molecular target: T1, Porcine brain tubulin (Sus scrofa, UniProt P02550+P02554); set-up: In vitro tubulin polymerization assay was carried out using purified tubulin; purchased Cytoskeleton, Denver, CO BK011P; host or cells: porcine brain (tissue-purified); details: It has been known; cited from earlier work
Porcine brain tubulin [9] = molecular target: T1, Porcine brain tubulin
Protocol: In vitro tubulin polymerization assay was carried out using purified tubulin. BK011P-Tubulin Polymerization Assay Kit (Cytoskeleton, Denver, CO) was used. Porcine brain tubulin solution (2 mg/mL) was prepared by using tubulin buffer (80 mM PIPES, 2.0 mM MgCl2, 0.5 mM EGTA, 15% v/v glycerol, and 1 mM GTP). […] Fluorescence intensities (ex-360 nm, em-450 nm) was measured and monitored every 1 min, for consecutive 80 min (FIG. 2).

[10] = Homo sapiens, A549 parental cells, read-out: GI50 ± SD
[11] = ratio of GI50 A549/T to A549, salts (Table 3)
[12] = A549 cells, salts (Table 3), read-out: GI50

T1 sequence (P02550 whole entry): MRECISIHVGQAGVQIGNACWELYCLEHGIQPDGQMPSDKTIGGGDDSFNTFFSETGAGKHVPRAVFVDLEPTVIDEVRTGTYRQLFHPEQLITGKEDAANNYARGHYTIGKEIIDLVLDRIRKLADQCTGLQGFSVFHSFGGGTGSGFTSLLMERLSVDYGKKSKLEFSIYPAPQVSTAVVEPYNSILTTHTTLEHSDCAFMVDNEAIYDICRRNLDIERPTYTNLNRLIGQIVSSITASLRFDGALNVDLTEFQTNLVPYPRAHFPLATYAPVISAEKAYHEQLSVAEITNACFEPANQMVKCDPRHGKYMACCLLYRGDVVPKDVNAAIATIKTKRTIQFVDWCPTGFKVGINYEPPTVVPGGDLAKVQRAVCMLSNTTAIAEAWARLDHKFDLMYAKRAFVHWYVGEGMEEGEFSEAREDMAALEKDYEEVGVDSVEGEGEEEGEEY
T1 sequence (P02554 whole entry): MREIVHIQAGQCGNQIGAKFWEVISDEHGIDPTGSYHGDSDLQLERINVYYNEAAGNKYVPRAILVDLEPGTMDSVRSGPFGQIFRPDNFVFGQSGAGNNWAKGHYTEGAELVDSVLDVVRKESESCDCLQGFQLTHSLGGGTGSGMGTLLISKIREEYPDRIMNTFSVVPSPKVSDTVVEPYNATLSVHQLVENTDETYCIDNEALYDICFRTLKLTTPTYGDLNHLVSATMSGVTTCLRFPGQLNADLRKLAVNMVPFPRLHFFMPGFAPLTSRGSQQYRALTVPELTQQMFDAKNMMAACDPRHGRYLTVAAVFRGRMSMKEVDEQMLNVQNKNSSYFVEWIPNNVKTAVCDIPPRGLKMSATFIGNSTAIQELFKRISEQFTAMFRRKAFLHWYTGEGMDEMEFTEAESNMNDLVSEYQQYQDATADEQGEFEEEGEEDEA

Work on `CNc1ccc2c(cc1=O)C(NC(C)=O)CCc1cc(OC)c(OC)c(OC)c1-2` (stereo not drawn) [Methylaminocolchicine] yielded a GI50 (KB cells) of 6.41 ± 2.39 nM, a GI50 (HL-60) of 3.5 ± 0.14 nM and a GI50 (MOLM-13) of 4.87 ± 0.86 nM. It also gave a GI50 (K562) of 5 ± 0.32 nM, a GI50 (MX-1 cells) of 11.2 ± 1.17 nM and a GI50 (MCF-7 cells) of 20.7 ± 2.8 nM. The inhibition at 0.02 µM ([1]; read-out: Growth inhibition rate, A549/T, 96 h, methylaminocolchicine alone 20 nM) was 1%, the inhibition at 0.08 µM ([1]; read-out: Growth inhibition rate, A549/T, 96 h, methylaminocolchicine alone 80 nM) was 34.5% and the GI50 [2] was 36.3 ± 6.77 nM. The Growth inhibition rate ([3]; methylaminocolchicine alone 40 nM) was 3.08% and 0.97%, the Growth inhibition rate ([3]; methylaminocolchicine alone 80 nM) was 42.77% and 37.66% and 38.92% and the GI50 [4] was 23.64 ± 0.06 nM. The GI50 (A549 cells; [10]) was 6.88 ± 0.67 nM, the GI50 [5] was 47.6 ± 2.82 nM and the GI50 (HepG-2) was 7.05 ± 1.74 nM. For the same compound, the GI50 (PC-3) was 9.19 ± 0.81 nM, the GI50 (Hela) was 9.97 ± 2.34 nM and the GI50 (HCT-116) was 9.16 ± 4.19 nM. It also gave a GI50 [6] of 11.4 ± 1.2 nM.

With `CC1(C)CCC(c2ccc(Cl)cc2)=C(CN2CCN(c3ccc(C(=O)NS(=O)(=O)c4ccc(N[C@H](CCN5CCOCC5)CSc5ccccc5)c(S(=O)(=O)C(F)(F)F)c4)cc3)CC2)C1` [Navitoclax] the inhibition at 5 µM [1] was 2.84%, the inhibition at 10 µM [1] was 67.7% and the inhibition at 20 µM [1] was 96.3%.

With `CN(C)CC#Cc1ccc(OCCCc2sc(N3CCc4cccc(C(=O)Nc5nc6ccccc6s5)c4C3)nc2C(=O)O)c(F)c1` [A1155463] the inhibition at 5 µM [1] was 6.97%, the inhibition at 10 µM [1] was 12.1% and the inhibition at 20 µM [1] was 23.7%.

For Methylaminocolchicine Mesylate, the GI50 [7] was 29.9 nM, the “RI: resistance index” value [7, 11] was 1.76 and the GI50 (A549 cells; [12]) was 17 nM.

With `CC(=O)O[C@H]1C(=O)[C@@]2(C)[C@H]([C@H](OC(=O)c3ccccc3)[C@]3(O)C[C@H](OC(=O)[C@H](O)[C@@H](NC(=O)c4ccccc4)c4ccccc4)C(C)=C1C3(C)C)[C@]1(OC(C)=O)CO[C@@H]1C[C@@H]2O` [Paclitaxel] the GI50 (KB cells) was 3.52 ± 0.95 nM, the GI50 (MX-1 cells) was 67.3 ± 5.92 nM and the GI50 (MCF-7 cells) was 58 ± 9.62 nM. For the same compound, the Tumor growth inhibition (A549/T xenograft) was “neither paclitaxel nor colchicine can significantly inhibit the tumor growth”, the GI50 [2] was 604 ± 28.6 nM and the “RI: resistance index” value [2] was 171.48. The “Effect on tubulin polymerization (known action of control drugs)” value (Porcine brain tubulin [8]) was “promotes tubulin polymerization”, the GI50 [4] was 4760 ± 75 nM and the “RI: resistance index” value ([7]; ratio of GI50 A549/T to A549) was 209.45. The GI50 (A549 cells; [10]) was 23.1 ± 1.39 nM, the GI50 [5] was 941 ± 265 nM and the “RI: resistance index” value [5] was 16.24. The GI50 [6] was 1130 ± 228 nM and the “RI: resistance index” value [6] was 16.73.

For Methylaminocolchicine Sulfate, the GI50 [7] was 42.4 nM, the “RI: resistance index” value [7, 11] was 1.94 and the GI50 (A549 cells; [12]) was 21.9 nM.

In the case of Methylaminocolchicine Tartrate, the GI50 [7] is reported as 32.4 nM, the “RI: resistance index” value [7, 11] is reported as 1.99 and the GI50 (A549 cells; [12]) is reported as 16.2 nM.

With `CC[C@]1(O)C[C@H]2CN(CCc3c([nH]c4ccccc34)[C@@](C(=O)OC)(c3cc4c(cc3OC)N(C=O)[C@H]3[C@@](O)(C(=O)OC)[C@H](OC(C)=O)[C@]5(CC)C=CCN6CC[C@]43[C@@H]65)C2)C1` [Vincristine] the GI50 (KB cells) was 2.69 ± 1.53 nM, the GI50 (MX-1 cells) was 16.7 ± 6.87 nM and the GI50 (MCF-7 cells) was 159 ± 44.6 nM. For the same compound, the GI50 [2] was 268 ± 13.1 nM, the “RI: resistance index” value [2] was 99.68 and the “Effect on tubulin polymerization (known action of control drugs)” value (Porcine brain tubulin [8]) was “inhibits it”. The GI50 [4] was 1130 ± 12.7 nM, the “RI: resistance index” value ([7]; ratio of GI50 A549/T to A549) was 24.7 and the GI50 (A549 cells; [10]) was 45.6 ± 3.68 nM. The GI50 [5] was 576 ± 80.7 nM, the “RI: resistance index” value [5] was 3.63 and the “Effect on tubulin polymerization” value (Porcine brain tubulin [9]) was “Like vincristine, colchicine could inhibit tubulin polymerization”. For the same compound, the GI50 [6] was 262 ± 6.8 nM and the “RI: resistance index” value [6] was 14.47.

For `COc1cc2c(c(OC)c1OC)-c1ccc(OC)c(=O)cc1[C@@H](NC(C)=O)CC2` [Colchicine], the GI50 (KB cells) was 10.9 ± 1.26 nM, the GI50 (HL-60) was 9.3 ± 3.7 nM and the GI50 (MOLM-13) was 11.6 ± 1.21 nM. For the same compound, the GI50 (K562) was 10.7 ± 1.5 nM, the GI50 (MX-1 cells) was 57.9 ± 7.55 nM and the GI50 (MCF-7 cells) was 51.4 ± 10.8 nM. For the same compound, the Tumor growth inhibition (A549/T xenograft) was “neither paclitaxel nor colchicine can significantly inhibit the tumor growth”, the GI50 [2] was 88.8 ± 9.83 nM and the GI50 [4] was 1083 ± 2.37 nM. For the same compound, the GI50 (A549 cells; [10]) was 38.4 ± 3.37 nM, the GI50 [5] was 251 ± 61 nM and the GI50 (HepG-2) was 57.7 ± 5.41 nM. For the same compound, the GI50 (PC-3) was 90.5 ± 25.2 nM, the GI50 (Hela) was 124 ± 8.41 nM and the GI50 (HCT-116) was 79.3 ± 6.59 nM. The GI50 [6] was 838.2 ± 2.62 nM.

In the case of `Cc1c(-c2ccc(N3CCc4cccc(C(=O)Nc5nc6ccccc6s5)c4C3)nc2C(=O)O)cnn1CC12CC3CC(CC(C3)C1)C2` [A1331852], the inhibition at 5 µM [1] is reported as 5.17%, the inhibition at 10 µM [1] is reported as 11.2% and the inhibition at 20 µM [1] is reported as 17.5%.

With Methylaminocolchicine Hydrochloride the GI50 [7] was 63.7 nM, the “RI: resistance index” value [7, 11] was 3.77 and the GI50 (A549 cells; [12]) was 16.9 nM.

Work on `CC1(C)CCC(CN2CCN(c3ccc(C(=O)NS(=O)(=O)c4ccc(NCC5CCOCC5)c([N+](=O)[O-])c4)c(Oc4cnc5[nH]ccc5c4)c3)CC2)=C(c2ccc(Cl)cc2)C1` [Venetoclax] yielded an inhibition at 5 µM [1] of 23.2%, an inhibition at 10 µM [1] of 57.7% and an inhibition at 20 µM [1] of 95.5%.

In the case of “Methylaminocolchicine p-Toluenesulfonate”, the GI50 [7] is reported as 72.7 nM, the “RI: resistance index” value [7, 11] is reported as 3.98 and the GI50 (A549 cells; [12]) is reported as 18.3 nM.

Source: US20240238223A1 (Shenyang Pharmaceutical University, priority 2023, published 2024)
